Results taken from patent US11702429B2, “mTORC modulators and uses thereof” (Aeovian Pharmaceuticals, Inc., priority 2019, dated 2023).
Where two headings read alike, the source gives them in different places.

Legend:
mTORC2 = molecular target: T1, mTORC2 (Homo sapiens, UniProt P42345+P62942); experiment: Inhibition assay for mTORC2: phosphorylation of pAkt at Ser473, AlphaLISA in PC3 cells; assay type: cell-based; conditions: for IC50: read-out: pIC50 mTORC2 (converted)
T1 construct: endogenous in cells; host or cells: PC3 cells (human prostate adenocarcinoma)
Description: (§1) The IC50s of the inhibition of mTORC1 and mTORC2 were determined in vitro by determining the phosphorylation of pS6K at position Thr389 (mTORC1 inhibition) and pAkt at Ser473 (mTORC2 inhibition). In vitro studies were performed with AlphaLISA® technology using PC3 cells (Prostate Adenocarcinoma; Human (Homo sapiens)). The cells were seeded in 96 well plates and were treated for 24 hours with the different compounds. […] All analysis were performed using GraphPad Prism 7.0 (GraphPad Software, San Diego, USA).

mTORC1 = molecular target: T2, mTORC1 (Homo sapiens, UniProt P42345+P62942); experiment: Inhibition assay for mTORC1: phosphorylation of pS6K at Thr389, AlphaLISA in PC3 cells; assay type: cell-based; conditions: for IC50: read-out: pIC50 mTORC1 (converted)
T2 construct: endogenous in cells; host or cells: PC3 cells (human prostate adenocarcinoma)
Description: as §1

[1] = PC3 cells, treated 24 hours, pAkt Ser473, AlphaLISA, C16 diastereomer mixtures not separated
[2] = PC3 cells, treated 24 hours, pS6K Thr389, AlphaLISA, C16 diastereomer mixtures not separated

T1 sequence (P62942 2-108 limits assumed, other chains not shown): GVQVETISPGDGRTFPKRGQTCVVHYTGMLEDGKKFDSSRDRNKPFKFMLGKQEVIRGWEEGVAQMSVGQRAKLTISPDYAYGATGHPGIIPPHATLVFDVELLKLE

| IC50 (mTORC2) | IC50 (mTORC1) | other results | SMILES |
| --- | --- | --- | --- |
| – | – | IC50 (mTORC2; [1]): > 10000 nM; IC50 (mTORC1; [2]): 0.316 to 3.16 nM | CO[C@@H]1C[C@H](C[C@@H](C)[C@@H]2CC(=O)[C@H](C)/C=C(\C)[C@@H](O)[C@@H](OC)C(=O)[C@H](C)C[C@H](C)/C=C/C=C/C=C(\C)C(OCCCO)C[C@@H]3CC[C@@H](C)[C@@](O)(O3)C(=O)C(=O)N3CCCC[C@H]3C(=O)O2)CC[C@H]1OCCCc1ccccc1 (mixture of isomers) [Compound 67, (1R,9S,12SR,15R,16E,18R,19R,21R,23S,24E,26E,28E,32SR,35R)-1,18-dihydroxy-30-(3-hydroxypropoxy)-19-methoxy-12-[(1R)-2-[(1S,3R,4R)-3-methoxy-4-(3-phenylpropoxy)cyclohexyl]-1-methyl-ethyl]-15,17,21,23,29,35-hexamethyl-11,36-dioxa-4-azatricyclo[30.3.1.0^4,9]hexatriaconta-16,24,26,28-tetraene-2,3,10,14,20-pentone] |
| < 1000 nM | < 0.316 nM | – | COC1C[C@@H]2CC[C@@H](C)[C@@](O)(O2)C(=O)C(=O)N2CCCCC2C(=O)O[C@H]([C@H](C)C[C@@H]2CC[C@@H](OC(=O)N(C)CCN3CCOCC3)[C@H](OC)C2)CC(=O)[C@H](C)/C=C(\C)[C@@H](O)[C@@H](OC)C(=O)[C@H](C)C[C@H](C)/C=C/C=C/C=C/1C (stereo partly drawn) [Compound 356] |
| < 1000 nM | < 0.316 nM | – | COC1C[C@@H]2CC[C@@H](C)[C@@](O)(O2)C(=O)C(=O)N2CCCCC2C(=O)O[C@H]([C@H](C)C[C@@H]2CC[C@@H](OCCCOCCO)[C@H](OC)C2)CC(=O)[C@H](C)/C=C(\C)[C@@H](O)[C@@H](OC)C(=O)[C@H](C)C[C@H](C)/C=C/C=C/C=C/1C (stereo partly drawn) [Compound 319] |
| 1000 to 10000 nM | 0.316 to 3.16 nM | – | CO[C@@H]1C[C@H](C[C@@H](C)[C@@H]2CC(=O)[C@H](C)/C=C(\C)[C@@H](O)[C@@H](OC)C(=O)[C@H](C)C[C@H](C)/C=C/C=C/C=C(\C)C(OCCCc3ccccc3)C[C@@H]3CC[C@@H](C)[C@@](O)(O3)C(=O)C(=O)N3CCCCC3C(=O)O2)CC[C@H]1O (stereo partly drawn) [Compound 207] |
| – | – | pIC50 mTORC2 (mTORC2; [1]): B (5 to 6 as B); pIC50 mTORC1 (mTORC1; [2]): A (pIC50 for mTORC1 of >9.5 as A) | COCCOC1CC2CCC(C)C(O)(O2)C(=O)C(=O)N2CCCCC2C(=O)OC(C(C)CC2CCC(OCCO)C(OC)C2)CC(=O)C(C)C=C(C)C(O)C(OC)C(=O)C(C)CC(C)C=CC=CC=C1C (stereo not drawn) [Compound 40] |
| < 1000 nM | < 0.316 nM | – | COC1CC2CCC(C)C(O)(O2)C(=O)C(=O)N2CCCCC2C(=O)OC(C(C)CC2CCC(OCCCN3CCCC(O)C3)C(OC)C2)CC(=O)C(C)C=C(C)C(O)C(OC)C(=O)C(C)CC(C)C=CC=CC=C1C (stereo not drawn) [Compound 340] |
| < 1000 nM | < 0.316 nM | – | COC1C[C@@H]2CC[C@@H](C)[C@@](O)(O2)C(=O)C(=O)N2CCCCC2C(=O)O[C@H]([C@H](C)C[C@@H]2CC[C@@H](OCCCN3CCOCC3)[C@H](OC)C2)CC(=O)[C@H](C)/C=C(\C)[C@@H](O)[C@@H](OC)C(=O)[C@H](C)C[C@H](C)/C=C/C=C/C=C/1C (stereo partly drawn) [Compound 322] |
| < 1000 nM | < 0.316 nM | – | COC1C[C@@H]2CC[C@@H](C)[C@@](O)(O2)C(=O)C(=O)N2CCCCC2C(=O)O[C@H]([C@H](C)C[C@@H]2CC[C@@H](OC(=O)NCCc3ccccc3)[C@H](OC)C2)CC(=O)[C@H](C)/C=C(\C)[C@@H](O)[C@@H](OC)C(=O)[C@H](C)C[C@H](C)/C=C/C=C/C=C/1C (stereo partly drawn) [Compound 324] |
| – | – | IC50 (mTORC2; [1]): > 10000 nM; IC50 (mTORC1; [2]): < 0.316 nM | CO[C@@H]1C[C@H](C[C@@H](C)[C@@H]2CC(=O)[C@H](C)/C=C(\C)[C@@H](O)[C@@H](OC)C(=O)[C@H](C)C[C@H](C)/C=C/C=C/C=C(\C)C(OCCO)C[C@@H]3CC[C@@H](C)[C@@](O)(O3)C(=O)C(=O)N3CCCC[C@H]3C(=O)O2)CC[C@H]1OC(=O)NCCc1ccccc1 (mixture of isomers) [Compound 1, [(1R,2R,4S)-4-[(2R)-2-[(1R,9S,12SR,15R,16E,18R,19R,21R,23S,24E,26E,28E,32SR,35R)-1,18-dihydroxy-30-(2-hydroxyethoxy)-19-methoxy-15,17,21,23,29,35-hexamethyl-2,3,10,14,20-pentaoxo-11,36-dioxa-4-azatricyclo[30.3.1.0^4,9]hexatriaconta-16,24,26,28-tetraen-1^2-yl]propyl]-2-methoxy-cyclohexyl] N-(2-phenylethyl)carbamate] |
| – | – | pIC50 mTORC2 (mTORC2; [1]): B (5 to 6 as B); pIC50 mTORC1 (mTORC1; [2]): A (pIC50 for mTORC1 of >9.5 as A) | CO[C@@H]1C[C@H](C[C@@H](C)[C@@H]2CC(=O)[C@H](C)/C=C(\C)[C@@H](O)[C@@H](OC)C(=O)[C@H](C)C[C@H](C)/C=C/C=C/C=C(\C)C(OC[C@H](O)c3ccccc3)C[C@@H]3CC[C@@H](C)[C@@](O)(O3)C(=O)C(=O)N3CCCCC3C(=O)O2)CC[C@H]1OCCO (stereo partly drawn) [Compound 88] |
| < 1000 nM | < 0.316 nM | – | COC1C[C@@H]2CC[C@@H](C)[C@@](O)(O2)C(=O)C(=O)N2CCCCC2C(=O)O[C@H]([C@H](C)C[C@@H]2CC[C@@H](OC(=O)CN(C)C)[C@H](OC)C2)CC(=O)[C@H](C)/C=C(\C)[C@@H](O)[C@@H](OC)C(=O)[C@H](C)C[C@H](C)/C=C/C=C/C=C/1C (stereo partly drawn) [Compound 343] |
| < 1000 nM | < 0.316 nM | – | COC1C[C@@H]2CC[C@@H](C)[C@@](O)(O2)C(=O)C(=O)N2CCCCC2C(=O)O[C@H]([C@H](C)C[C@@H]2CC[C@@H](OC(=O)NCCOCCOCCOCCOCCO)[C@H](OC)C2)CC(=O)[C@H](C)/C=C(\C)[C@@H](O)[C@@H](OC)C(=O)[C@H](C)C[C@H](C)/C=C/C=C/C=C/1C (stereo partly drawn) [Compound 347] |
| < 1000 nM | < 0.316 nM | – | COC1C[C@@H]2CC[C@@H](C)[C@@](O)(O2)C(=O)C(=O)N2CCCCC2C(=O)O[C@H]([C@H](C)C[C@@H]2CC[C@@H](OCCN3CCOCC3)[C@H](OC)C2)CC(=O)[C@H](C)/C=C(\C)[C@@H](O)[C@@H](OC)C(=O)[C@H](C)C[C@H](C)/C=C/C=C/C=C/1C (stereo partly drawn) [Compound 325] |
| < 1000 nM | > 3.16 nM | – | COC1C[C@@H]2CC[C@@H](C)[C@@](O)(O2)C(=O)C(=O)N2CCCCC2C(=O)O[C@H]([C@H](C)C[C@@H]2CC[C@@H](OC(=O)NC3C(O)O[C@H](CO)[C@@H](O)[C@@H]3O)[C@H](OC)C2)CC(=O)[C@H](C)/C=C(\C)[C@@H](O)[C@@H](OC)C(=O)[C@H](C)C[C@H](C)/C=C/C=C/C=C/1C (stereo partly drawn) [Compound 361] |
| < 1000 nM | < 0.316 nM | – | COC1C[C@@H]2CC[C@@H](C)[C@@](O)(O2)C(=O)C(=O)N2CCCCC2C(=O)O[C@H]([C@H](C)C[C@@H]2CC[C@@H](OCCCN3CCCCC3)[C@H](OC)C2)CC(=O)[C@H](C)/C=C(\C)[C@@H](O)[C@@H](OC)C(=O)[C@H](C)C[C@H](C)/C=C/C=C/C=C/1C (stereo partly drawn) [Compound 341] |
| > 10000 nM | 0.316 to 3.16 nM | – | CO[C@@H]1C[C@H](C[C@@H](C)[C@@H]2CC(=O)[C@H](C)/C=C(\C)[C@@H](O)[C@@H](OC)C(=O)[C@H](C)C[C@H](C)/C=C/C=C/C=C(\C)C(OCCO)C[C@@H]3CC[C@@H](C)[C@@](O)(O3)C(=O)C(=O)N3CCCCC3C(=O)O2)CC[C@H]1O (stereo partly drawn) [Compound 219, (1R,9S,12S,15R,16E,18R,19R,21R,23S,24E,26E,28E,32S,35R)-1,18-dihydroxy-30-(2-hydroxyethoxy)-12-[(1R)-2-[(1S,3R,4R)-4-hydroxy-3-methoxy-cyclohexyl]-1-methyl-ethyl]-19-methoxy-15,17,21,23,29,35-hexamethyl-11,36-dioxa-4-azatricyclo[30.3.1.0^4,9]hexatriaconta-16,24,26,28-tetraene-2,3,10,14,20-pentone] |
| – | – | IC50 (mTORC2; [1]): > 10000 nM; IC50 (mTORC1; [2]): < 0.316 nM | COCCOC1C[C@@H]2CC[C@@H](C)[C@@](O)(O2)C(=O)C(=O)N2CCCC[C@H]2C(=O)O[C@H]([C@H](C)C[C@@H]2CC[C@@H](OCCCN3CC4(COC4)C3)[C@H](OC)C2)CC(=O)[C@H](C)/C=C(\C)[C@@H](O)[C@@H](OC)C(=O)[C@H](C)C[C@H](C)/C=C/C=C/C=C/1C (mixture of isomers) [Compound 26] |
| – | – | IC50 (mTORC2; [1]): 1000 to 10000 nM; IC50 (mTORC1; [2]): < 0.316 nM | COCCOC1C[C@@H]2CC[C@@H](C)[C@@](O)(O2)C(=O)C(=O)N2CCCC[C@H]2C(=O)O[C@H]([C@H](C)C[C@@H]2CC[C@@H](OCCCN3CCN(C(C)C)CC3)[C@H](OC)C2)CC(=O)[C@H](C)/C=C(\C)[C@@H](O)[C@@H](OC)C(=O)[C@H](C)C[C@H](C)/C=C/C=C/C=C/1C (mixture of isomers) [Compound 39] |
| < 1000 nM | < 0.316 nM | – | COC1C[C@@H]2CC[C@@H](C)[C@@](O)(O2)C(=O)C(=O)N2CCCCC2C(=O)O[C@H]([C@H](C)C[C@@H]2CC[C@@H](OCCOCCOCCO)[C@H](OC)C2)CC(=O)[C@H](C)/C=C(\C)[C@@H](O)[C@@H](OC)C(=O)[C@H](C)C[C@H](C)/C=C/C=C/C=C/1C (stereo partly drawn) [Compound 317] |
| – | – | pIC50 mTORC2 (mTORC2; [1]): A (PIC50 for mTORC2 of <5 as A); pIC50 mTORC1 (mTORC1; [2]): A (pIC50 for mTORC1 of >9.5 as A) | COCCCO[C@@H]1CC[C@@H](C[C@@H](C)[C@@H]2CC(=O)[C@H](C)/C=C(\C)[C@@H](O)[C@@H](OC)C(=O)[C@H](C)C[C@H](C)/C=C/C=C/C=C(\C)C(OCCOC)C[C@@H]3CC[C@@H](C)[C@@](O)(O3)C(=O)C(=O)N3CCCCC3C(=O)O2)C[C@H]1OC (stereo partly drawn) [Compound 14] |
| < 1000 nM | < 0.316 nM | – | COC1C[C@@H]2CC[C@@H](C)[C@@](O)(O2)C(=O)C(=O)N2CCCCC2C(=O)O[C@H]([C@H](C)C[C@@H]2CC[C@@H](OCCN3CCN(C)CC3)[C@H](OC)C2)CC(=O)[C@H](C)/C=C(\C)[C@@H](O)[C@@H](OC)C(=O)[C@H](C)C[C@H](C)/C=C/C=C/C=C/1C (stereo partly drawn) [Compound 320] |
